# Measured values as given in publication PMC7403393 (Scientific Reports, 2020).
# Where a name gives a salt, the structure may show the parent alone. Read-outs that look alike come from different tables or passages of the source.
# Columns and labels:
# SARS-CoV-2 [1] = test: EC50/EC90 determination by quantification of viral genome (real-time RT-PCR) in VeroE6 cells; type: cell-based, SARS-CoV-2 strain BavPat1; conditions: for activity at 40 µM: VeroE6, 40 µM
# SARS-CoV-2 [2] = test system: SARS-CoV-2
# in vitro = conditions: African green monkey
# VeroE6 cells [3] = conditions: VeroE6, no virus, CellTiter Blue
# SARS-CoV-2 [4] = conditions: 5 and 10 µM
# SARS-CoV-2 [5] = test system: SARS-CoV-2; design: method as in earlier work; conditions: cited from earlier work
# VeroE6 cells [6] = test system: VeroE6 cells; design: method as in PMID 29642580; conditions: cited from earlier work
# SARS-CoV-2 [7] = test: microbe, parasite or virus in culture; conditions: Severe acute respiratory syndrome coronavirus 2, Vero C1008, read-out: cell viability
# SARS-CoV-2 [8] = test: microbe, parasite or virus in culture; conditions: Severe acute respiratory syndrome coronavirus 2, Caco-2, read-out: replication inhibition
# [9] = Severe acute respiratory syndrome coronavirus 2, Vero C1008, 48 h, VeroE6, viral RNA by RT-qPCR, 2 days, read-out: EC50
# [10] = Severe acute respiratory syndrome coronavirus 2, Vero C1008, 48 h, VeroE6, viral RNA by RT-qPCR, 2 days, read-out: EC90
# [11] = selectivity index CC50/EC50, VeroE6
# [12] = 10 µM compound, VeroE6, MOI 0.002, 3 days after infection, normalized cell viability relative to 10 µM arbidol
# [13] = VeroE6, viral RNA by RT-qPCR, 2 days, read-out: EC50
# [14] = VeroE6, viral RNA by RT-qPCR, 2 days, read-out: EC90
# [15] = Severe acute respiratory syndrome coronavirus 2, Vero C1008, 48 h
# [16] = Severe acute respiratory syndrome coronavirus 2, Vero C1008, 48 h, VeroE6, viral RNA by RT-qPCR, 2 days
molecule,measurement,setting,value
OCCN1CCN(CCCN2c3ccccc3C=Cc3ccccc32)CC1 [Opipramol dihydrochloride],EC50,SARS-CoV-2 [1]; [9],5.05 µM
same,EC90,SARS-CoV-2 [1]; [10],5.97 µM
same,SI,SARS-CoV-2 [1]; [11],> 7.9
same,Inhibition index,SARS-CoV-2 [2]; [12],1.05
same,CC50 at 2 days,in vitro; VeroE6 cells (no virus),> 40 µM
CCCCOc1cc(C(=O)OCCN(CC)CC)ccc1N [Benoxinate hydrochloride],Inhibition index,SARS-CoV-2 [2]; [12],1.19
O=C([O-])c1ccccc1-c1c2cc(Br)c(=O)cc-2oc2[c]([Hg+])c([O-])c(Br)cc12.[Na+].[Na+].[OH-] [Merbromin disodium salt],Inhibition index,SARS-CoV-2 [2],1.12
CCOc1nc2cccc(C(=O)O)c2n1Cc1ccc(-c2ccccc2-c2nnn[nH]2)cc1 [Candesartan],activity at 40 µM,SARS-CoV-2 [1],lack of activity
CN1CCN2c3ncccc3Cc3ccccc3C2C1 (centres unmarked) [Mirtazapine],Inhibition index,SARS-CoV-2 [2]; [12],1.03
Cl.Clc1ccc(Cn2c(CN3CCCC3)nc3ccccc32)cc1 [Clemizole hydrochloride],EC50,SARS-CoV-2 [1]; [13],23.9 µM
same,EC90,SARS-CoV-2 [1]; [14],38.2 µM
same,SI,SARS-CoV-2 [1]; [11],> 1.7
same,Inhibition index,SARS-CoV-2 [2]; [12],1.01
same,CC50,VeroE6 cells [3],> 40 µM
CC(C)(C)NC[C@H](O)c1ccc(O)c(CO)c1 [Levalbuterol],EC50,SARS-CoV-2 [1]; [9],≥ 40 µM
CCCCOc1ccc(C(=O)CCN2CCCCC2)cc1 [Dyclonine hydrochloride],EC50,SARS-CoV-2 [1]; [9],10 µM
same,EC90,SARS-CoV-2 [1]; [10],> 40 µM
same,SI,SARS-CoV-2 [1]; [11],> 4
same,antiviral effect in Caco-2 cells (in words),SARS-CoV-2 [4],Arbidol-like result
same,CC50 at 2 days,in vitro; VeroE6 cells (no virus),> 40 µM
CCN(CCO)CCCC(C)Nc1ccnc2cc(Cl)ccc12 (centres unmarked) [Hydroxychloroquine sulfate],antiviral effect in a macaque model,SARS-CoV-2 [5],no antiviral effect
same,EC50,SARS-CoV-2 [1]; [9],4.17 µM
same,EC90,SARS-CoV-2 [1]; [10],25.5 µM
same,CC50 at 2 days,in vitro,> 40 µM
Cn1nnnc1SCC1=C(C(=O)O)N2C(=O)[C@@H](NC(=O)[C@H](O)c3ccccc3)[C@H]2SC1 [Cefamandole],EC50,SARS-CoV-2 [1]; [9],≥ 40 µM
C[C@]12CC[C@H](O)C[C@@H]1CC[C@@H]1[C@@H]2CC[C@]2(C)C(=O)CC[C@@H]12 [Epiandrosterone],Inhibition index,SARS-CoV-2 [2]; [12],1.07
COc1ccccc1OCC(O)CN1CCN(CC(=O)Nc2c(C)cccc2C)CC1 (centres unmarked) [Ranolazine],EC50,SARS-CoV-2 [1]; [9],≥ 40 µM
CCCc1nc(C(C)(C)O)c(C(=O)O)n1Cc1ccc(-c2ccccc2-c2nnn[nH]2)cc1 [Olmesartan],EC50,SARS-CoV-2 [1]; [9],≥ 40 µM
same,activity at 40 µM,SARS-CoV-2 [1],lack of activity
CN(C)CCCN1c2ccccc2Sc2ccccc21 [Promazine hydrochloride],Inhibition index,SARS-CoV-2 [2]; [12],1.16
CNCc1cc(-c2ccccc2F)n(S(=O)(=O)c2cccnc2)c1 [Vonoprazan],EC90,SARS-CoV-2 [1]; [15],> 40 µM
same,EC50,SARS-CoV-2 [1]; [16],> 30 µM
same,EC50,SARS-CoV-2 [1]; [13],38.6 µM
same,SI,SARS-CoV-2 [1]; [11],> 1
same,CC50 at 2 days,in vitro,> 40 µM
COc1ccc2[nH]c([S+]([O-])Cc3ncc(C)c(OC)c3C)nc2c1 (centres unmarked) [Omeprazole],EC50,SARS-CoV-2 [1]; [9],17.1 µM
same,EC90,SARS-CoV-2 [1]; [10],38 µM
same,CC50 at 2 days,in vitro; VeroE6 cells (no virus),> 40 µM
Spiramycin,SI,SARS-CoV-2 [1],> 5
same,EC50,SARS-CoV-2 [1]; [13],7.95 µM
same,EC90,SARS-CoV-2 [1]; [14],10.5 µM
same,CC50,VeroE6 cells [3],> 40 µM
C=CCOc1ccccc1OCC(O)CNC(C)C (centres unmarked) [Oxprenolol hydrochloride],EC50,SARS-CoV-2 [1]; [9],20.2 µM
same,EC90,SARS-CoV-2 [1]; [10],> 40 µM
same,SI,SARS-CoV-2 [1]; [11],> 2
same,CC50 at 2 days,in vitro; VeroE6 cells (no virus),> 40 µM
Nc1c2c(nc3ccccc13)CCCC2 [Tacrine hydrochloride],Inhibition index,SARS-CoV-2 [2]; [12],1.44
CCOC(=O)c1c(CSc2ccccc2)n(C)c2cc(Br)c(O)c(CN(C)C)c12 [Arbidol],EC50,SARS-CoV-2 [1]; [9],10.7 µM
same,EC90,SARS-CoV-2 [1]; [10],15.2 µM
same,SI,SARS-CoV-2 [1]; [11],> 3.7
same,CC50,VeroE6 cells [6],> 40 µM
same,viability at 10 µM,SARS-CoV-2 [7],70 to 90%
same,antiviral effect in Caco-2 cells (in words),SARS-CoV-2 [4],weaker than the one observed in VeroE6
CCCCC[C@H](O)/C=C/[C@H]1[C@H](O)CC(=O)[C@@H]1CCCCCCC(=O)O [Alprostadil],EC90,SARS-CoV-2 [1]; [15],> 40 µM
same,EC50,SARS-CoV-2 [1]; [16],5.39 µM
same,SI,SARS-CoV-2 [1]; [11],> 7.4
same,CC50 at 2 days,in vitro; VeroE6 cells (no virus),> 40 µM
COc1ncnc(NS(=O)(=O)c2ccc(N)cc2)c1OC [Sulfadoxine],EC90,SARS-CoV-2 [1]; [15],> 40 µM
same,EC50,SARS-CoV-2 [1]; [16],> 30 µM
same,EC50,SARS-CoV-2 [1]; [13],35.4 µM
same,SI,SARS-CoV-2 [1]; [11],> 1.13
same,antiviral effect in Caco-2 cells (in words),SARS-CoV-2 [4],Arbidol-like result
same,CC50 at 2 days,in vitro,> 40 µM
CC[C@H]1OC(=O)[C@H](C)[C@@H](O[C@H]2C[C@@](C)(OC)[C@@H](O)[C@H](C)O2)[C@H](C)[C@@H](O[C@@H]2O[C@H](C)C[C@H](N(C)C)[C@H]2O)[C@](C)(O)C[C@@H](C)CN(C)[C@H](C)[C@@H](O)[C@]1(C)O [Azithromycine],antiviral effect in a macaque model,SARS-CoV-2 [5],no antiviral effect
same,EC50,SARS-CoV-2 [1]; [9],2.12 µM
same,EC90,SARS-CoV-2 [1]; [10],8.65 µM
same,SI,SARS-CoV-2 [1]; [11],> 19
same,CC50 at 2 days,in vitro; VeroE6 cells (no virus),> 40 µM
CCN(CC)CCCC(C)Nc1ccnc2cc(Cl)ccc12 (centres unmarked) [Chloroquine diphosphate],Inhibition index,SARS-CoV-2 [2]; [12],1.35
CCC(CC)COC(=O)[C@H](C)N[P@](=O)(OC[C@H]1O[C@@](C#N)(c2ccc3c(N)ncnn23)[C@H](O)[C@@H]1O)Oc1ccccc1 [Remdesivir],inhibition at 5 µM,SARS-CoV-2 [8],100%
same,inhibition at 10 µM,SARS-CoV-2 [8],100%
C=C1C[C@@H]2[C@H](CC[C@]3(C)C(=O)CC[C@@H]23)[C@@]2(C)C=CC(=O)C=C12 [Exemestane],EC90,SARS-CoV-2 [1]; [15],9.86 µM
same,EC50,SARS-CoV-2 [1]; [16],7.51 µM
same,Inhibition index,SARS-CoV-2 [2]; [12],1.10
same,antiviral effect in Caco-2 cells (in words),SARS-CoV-2 [4],Arbidol-like result
same,CC50 at 2 days,in vitro,> 40 µM
O=C(CCCN1CCC2(CC1)C(=O)NCN2c1ccccc1)c1ccc(F)cc1 [Spiperone],EC90,SARS-CoV-2 [1]; [10],13.1 µM
same,CC50 at 2 days,in vitro,> 40 µM
CC(C)CN(C[C@@H](O)[C@H](Cc1ccccc1)NC(=O)O[C@H]1CO[C@H]2OCC[C@H]21)S(=O)(=O)c1ccc(N)cc1 [Darunavir],EC50,SARS-CoV-2 [1]; [9],≥ 40 µM
COC(c1ccccc1)(c1ccccc1)[C@H](Oc1nc(C)cc(C)n1)C(=O)O [Ambrisentan],EC50,SARS-CoV-2 [1]; [9],≥ 40 µM
same,activity at 40 µM,SARS-CoV-2 [1],lack of activity
C[C@@H]1CCO[C@H]2Cn3cc(C(=O)NCc4ccc(F)cc4F)c(=O)c(O)c3C(=O)N12 [Dolutegravir],EC90,SARS-CoV-2 [1]; [15],> 40 µM
same,EC50,SARS-CoV-2 [1]; [9],22 µM
same,SI,SARS-CoV-2 [1]; [11],> 1.8
same,CC50 at 2 days,in vitro; VeroE6 cells (no virus),> 40 µM
COc1ccc(CC(C)NCC(O)c2ccc(O)c(NC=O)c2)cc1 (centres unmarked) [Formoterole],EC50,SARS-CoV-2 [1]; [13],≥ 40 µM
CNCC(O)c1ccc(OC(=O)C(C)(C)C)c(OC(=O)C(C)(C)C)c1 (centres unmarked) [Dipivefrin hydrochloride],Inhibition index,SARS-CoV-2 [2]; [12],1.01
CC(=O)[C@H]1CC[C@H]2[C@@H]3CC=C4C[C@@H](O)CC[C@]4(C)[C@H]3CC[C@]12C [Pregnenolone],Inhibition index,SARS-CoV-2 [2]; [12],1.66
C=C[C@H]1C[N@@]2CC[C@H]1C[C@@H]2[C@@H](O)c1ccnc2ccc(OC)cc12 [Quinidine hydrochloride],SI,SARS-CoV-2 [1],> 7.8
same,EC50,SARS-CoV-2 [1]; [9],5.11 µM
same,EC90,SARS-CoV-2 [1]; [10],> 40 µM
same,CC50 at 2 days,in vitro; VeroE6 cells (no virus),> 40 µM
